Reference: patent US20130330749A1, “METHOD AND APPARATUS FOR DETECTING LIVER DISEASE, AND METHOD FOR ASSAYING PHARMACEUTICAL PREPARATION” (priority 2008, published 2013)

What was measured:
[1] = system: glutathione; settings: mouse, large quantities of APAP, cited from earlier work
[2] = target: T1, γ-glutamyl cysteine synthase (GCS) (Mus musculus, UniProt P97494); assay: Administration of GCS inhibitor BSO and GCS activator DEM to mice; metabolites in liver and serum measured by CE-TOFMS; assay type: in vivo; settings: intraperitoneal 4 mmol/kg
T1 construct: Liver specimens (about 300 mg) were excised from the mice 1 hour after administration; from tissue; host or cells: mouse liver (in vivo, intraperitoneal dosing); serum also measured
T1 sequence (P97494 1-637): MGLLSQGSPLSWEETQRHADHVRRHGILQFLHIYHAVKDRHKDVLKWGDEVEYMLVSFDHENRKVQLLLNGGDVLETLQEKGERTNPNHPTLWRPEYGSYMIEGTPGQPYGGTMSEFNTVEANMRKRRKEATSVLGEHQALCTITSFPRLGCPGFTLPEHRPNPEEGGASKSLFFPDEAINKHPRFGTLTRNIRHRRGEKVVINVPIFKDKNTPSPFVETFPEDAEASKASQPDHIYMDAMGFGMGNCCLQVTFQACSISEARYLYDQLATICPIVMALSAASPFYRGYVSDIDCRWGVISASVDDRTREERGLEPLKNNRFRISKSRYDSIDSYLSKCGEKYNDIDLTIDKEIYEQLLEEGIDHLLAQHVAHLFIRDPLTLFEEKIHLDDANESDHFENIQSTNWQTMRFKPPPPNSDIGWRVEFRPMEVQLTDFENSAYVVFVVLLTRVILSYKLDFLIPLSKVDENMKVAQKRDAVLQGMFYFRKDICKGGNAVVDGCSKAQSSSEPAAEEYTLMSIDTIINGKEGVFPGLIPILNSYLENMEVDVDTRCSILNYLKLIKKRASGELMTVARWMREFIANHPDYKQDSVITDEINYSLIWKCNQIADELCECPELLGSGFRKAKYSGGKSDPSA
T1 sequence (O09172 1-274 partner): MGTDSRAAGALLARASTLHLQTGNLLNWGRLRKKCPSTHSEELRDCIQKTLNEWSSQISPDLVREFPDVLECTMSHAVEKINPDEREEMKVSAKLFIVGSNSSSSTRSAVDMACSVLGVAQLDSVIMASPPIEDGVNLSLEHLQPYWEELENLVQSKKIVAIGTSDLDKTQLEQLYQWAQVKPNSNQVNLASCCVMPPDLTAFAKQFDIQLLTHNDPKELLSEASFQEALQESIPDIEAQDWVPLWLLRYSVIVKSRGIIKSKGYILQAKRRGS
Description: The biosynthesis mechanism of γ-Glu-X peptides was elucidated using a mouse. As shown in FIG. 1(B), the following biosynthesis mechanism of γ-Glu-X peptides was found. That is, the oxidative stress condition caused by active oxygen and electrophiles causes depletion of glutathione, which is used for removing these substances, and this depletion leads to activation of γ-glutamyl cysteine synthase (GCS). Then, γ-Glu-X dipeptides and γ-Glu-X-Gly tripeptides are biosynthesized by using various amino acids as substrates (starting materials). The experimental procedures are described below.
Male mice were fasted overnight and anesthetized by an intraperitoneal injection of pentobarbital sodium (60 mg/Kg of body weight). Then, the mice were intraperitoneally injected with BSO, which is a γ-glutamyl cysteine synthase (GCS) inhibitor, and diethylmaleate (DEM), which is an electrophile (GCS activator), both at a dose of 4 mmol/kg of body weight (888 mg of BSO, 688 mg of DEM). The mouse as a healthy subject was intraperitoneally injected with physiological saline. Liver specimens (about 300 mg) were excised from the mice 1 hour after administration (5 times each).
The liver specimens (about 300 mg) excised from the mice were immediately placed in 1 ml of methanol containing an internal standard substance and were homogenized to inactivate an enzyme, thereby stopping enhancement of metabolism. After 500 μl of pure water was added to the mixture, 300 μl of solution was taken out. To this solution, 200 μl of chloroform was added. After thorough stirring, the solution was further centrifuged at 15000 rpm for 15 minutes at 4° C. After allowing to stand, 300 μl of separated water-methanol phase was passed through a 5 kDa molecular weight cutoff filter for centrifugal ultrafiltration to deproteinize it. The filtrate was lyophilized and 50 μl of Milli-Q water was added thereto. The mixture was subjected to a CE-TOFMS measurement.
The method described below was used to confirm that the detected γ-Glu-X peptides and γ-Glu-X-Gly peptides were synthesized in a glutathione-biosynthesis pathway. […]

Row | amount of glutathione in the livers ([2]; liver 1 hour after administration, compared to the healthy (saline) mouse) | γ-Glu-X and γ-Glu-X-Gly peptidic substances in the liver other than γ-Glu-Cys, GSH and γ-Glu-Ser-Gly ([2]; liver 1 hour after administration, compared to the healthy subject) | γ-Glu-2AB and ophthalmic acid (γ-Glu-2AB-Gly) in the murine serum ([2]; serum, compared to the normal state) | SMILES | ophthalmic acid level ([1]; in inverse proportion to the glutathione level) | glutathione level [1]
1 | – | – | – | CC(=O)Nc1ccc(O)cc1 [APAP, Acetaminophen] | increased rapidly | decreased
2 | decreased rapidly | decreased | decreased | CCCCS(=N)(=O)CCC(N)C(=O)O (centres unmarked) [BSO] | – | –
